A value given as a limit tells only on which side of the number the result lay.

The target in the assay is T1, Bovine thymus 1α,25-dihydroxyvitamin D3 receptor (VDR) (Bos taurus, UniProt Q28037).
T1 sequence (Q28037 1-426): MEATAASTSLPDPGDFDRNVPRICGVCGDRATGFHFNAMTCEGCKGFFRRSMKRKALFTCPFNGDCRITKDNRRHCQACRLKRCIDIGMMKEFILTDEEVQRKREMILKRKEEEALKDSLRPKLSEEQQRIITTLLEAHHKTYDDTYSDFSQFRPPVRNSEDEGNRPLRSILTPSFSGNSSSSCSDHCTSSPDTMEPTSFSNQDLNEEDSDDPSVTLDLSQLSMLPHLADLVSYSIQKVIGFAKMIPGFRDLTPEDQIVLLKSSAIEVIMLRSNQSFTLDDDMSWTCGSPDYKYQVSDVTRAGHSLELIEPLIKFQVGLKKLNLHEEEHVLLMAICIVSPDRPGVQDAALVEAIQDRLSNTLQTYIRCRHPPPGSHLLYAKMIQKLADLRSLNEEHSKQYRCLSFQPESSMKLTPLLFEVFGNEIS
The note with it: relative value, 1α,25-dihydroxyvitamin D3 taken as 100; X=(y/x)×100 from concentrations inhibiting 50% of [3H]-1α,25-dihydroxyvitamin D3 binding (0.1 nM) to VDR.
Take `C=C1/C(=C/C=C2\CCCC3(C)C2CCC3[C@H](C)CCCC(C)(C)O)C[C@@H](O)[C@@H](C)[C@@H]1O` (stereo partly drawn) [Example 1, (5E,7E)-(1S,2R,3R)-2-methyl-9,10-seco-5,7,10(19)-cholestatriene-1,3,25-triol]: the VDR binding property turned out to be 8.6. In the case of `C=C1/C(=C/C=C2\CCCC3(C)C2CCC3[C@@H](C)CCCC(C)(C)O)C[C@H](O)[C@H](C)[C@@H]1O` (stereo partly drawn) [Example 14, (5E,7E)-(1S,2S,3S,20S)-2-methyl-9,10-seco-5,7,10(19)-cholestatriene-1,3,25-triol], the VDR binding property is listed as 0.2.

Consider `C=C1/C(=C/C=C2\CCCC3(C)C2CCC3[C@@H](C)CCCC(C)(C)O)C[C@@H](O)[C@H](C)[C@H]1O` (stereo partly drawn) [Example 12, (5E,7E)-(1R,2S,3R,20S)-2-methyl-9,10-seco-5,7,10(19)-cholestatriene-1,3,25-triol], for which the VDR binding property was 0.03. Next, `C=C1/C(=C/C=C2\CCCC3(C)C2CCC3[C@@H](C)CCCC(C)(C)O)C[C@H](O)[C@@H](C)[C@H]1O` (stereo partly drawn) [Example 15, (5E,7E)-(1R,2R,3S,20S)-2-methyl-9,10-seco-5,7,10(19)-cholestatriene-1,3,25-triol]: 0.2; `C=C1/C(=C/C=C2\CCCC3(C)C2CCC3[C@H](C)CCCC(C)(C)O)C[C@@H](O)[C@H](C)[C@@H]1O` (stereo partly drawn) [Example 2, (5E,7E)-(1S,2S,3R)-2-methyl-9,10-seco-5,7,10(19)-cholestatriene-1,3,25-triol]: 0.4; `C=C1/C(=C/C=C2\CCCC3(C)C2CCC3[C@H](C)CCCC(C)(C)O)C[C@H](O)[C@H](C)[C@@H]1O` (stereo partly drawn) [Example 6, (5E,7E)-(1S,2S,3S)-2-methyl-9,10-seco-5,7,10(19)-cholestatriene-1,3,25-triol]: 0.013. Next, `C=C1/C(=C/C=C2\CCCC3(C)C2CCC3[C@@H](C)CCCC(C)(C)O)C[C@@H](O)[C@@H](C)[C@@H]1O` (stereo partly drawn) [Example 9, (5E,7E)-(1S,2R,3R,20S)-2-methyl-9,10-seco-5,7,10(19)-cholestatriene-1,3,25-triol]: 45. The same measure for `C=C1/C(=C/C=C2\CCCC3(C)C2CCC3[C@H](C)CCCC(C)(C)O)C[C@H](O)[C@H](C)[C@H]1O` (stereo partly drawn) [Example 8, (5E,7E)-(1R,2S,3S)-2-methyl-9,10-seco-5,7,10(19)-cholestatriene-1,3,25-triol]: below 0.01; for `C=C1/C(=C/C=C2\CCCC3(C)C2CCC3[C@@H](C)CCCC(C)(C)O)C[C@H](O)[C@@H](C)[C@@H]1O` (stereo partly drawn) [Example 13, (5E,7E)-(1S,2R,3S,20S)-2-methyl-9,10-seco-5,7,10(19)-cholestatriene-1,3,25-triol]: 0.5.

In turn, `C=C1/C(=C/C=C2\CCCC3(C)C2CCC3[C@@H](C)CCCC(C)(C)O)C[C@@H](O)[C@H](C)[C@@H]1O` (stereo partly drawn) [Example 10, (5E,7E)-(1S,2S,3R,20S)-2-methyl-9,10-seco-5,7,10(19)-cholestatriene-1,3,25-triol] displayed a VDR binding property of 1. Next, `C=C1/C(=C/C=C2\CCC[C@]3(C)[C@@H]([C@H](C)CCCC(C)(C)O)CC[C@@H]23)C[C@@H](O)[C@@H](C)[C@H]1O` [Example 3, (5E,7E)-(1R,2R,3R)-2-methyl-9,10-seco-5,7,10(19)-cholestatriene-1,3,25-triol]: 0.1; `C=C1C(=CC=C2CCCC3(C)C2CCC3C(C)CCCC(C)(C)O)CC(O)C(C)C1O` [Example 4, (5E,7E)-(1R,2S,3R)-2-methyl-9,10-seco-5,7,10(19)-cholestatriene-1,3,25-triol]: below 0.01; `C=C1/C(=C/C=C2\CCCC3(C)C2CCC3[C@@H](C)CCCC(C)(C)O)C[C@H](O)[C@H](C)[C@H]1O` (stereo partly drawn) [Example 16, (5E,7E)-(1R,2S,3S,20S)-2-methyl-9,10-seco-5,7,10(19)-cholestatriene-1,3,25-triol]: 0.08. Next, `C=C1/C(=C/C=C2\CCCC3(C)C2CCC3[C@H](C)CCCC(C)(C)O)C[C@H](O)[C@@H](C)[C@H]1O` (stereo partly drawn) [Example 7, (5E,7E)-(1R,2R,3S)-2-methyl-9,10-seco-5,7,10(19)-cholestatriene-1,3,25-triol]: 0.03.

`C=C1/C(=C/C=C2\CCCC3(C)C2CCC3[C@H](C)CCCC(C)(C)O)C[C@H](O)[C@@H](C)[C@@H]1O` (stereo partly drawn) [Example 5, (5E,7E)-(1S,2R,3S)-2-methyl-9,10-seco-5,7,10(19)-cholestatriene-1,3,25-triol] gave a VDR binding property of 0.04.

As to `C=C1C(=CC=C2CCCC3(C)C2CCC3C(C)CCCC(C)(C)O)CC(O)C(C)C1O` [Example 11, (5E,7E)-(1R,2R,3R,20S)-2-methyl-9,10-seco-5,7,10(19)-cholestatriene-1,3,25-triol], the VDR binding property was 0.8.
